# Experimental data taken from patent publication US20250312469A1 (CANGET BIOTEKPHARMA, priority 2024, published 2025).
# Where “and” joins values, the source holds several entries; their conditions need not be identical. Equal entries are not always repeated.
# Key:
# [1] = HPβCD-FL118 complex dissolution test; assay type: physicochemical; conditions: 37° C.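 Further: 20 mL buffer stirred at 100 rpm.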
# Method: The collected samples were analyzed for the concentrations of the supernatants by HPLC.
# [2] = tested on: CRPC LAPC9 tumors; experiment: LAPC9 CRPC tumor model; assay type: in vivo, SCID mice; conditions: 10 mg/kg i.p., 6 times over 2 weeks
# [3] = tested on: CYP3A; experiment: in vitro; conditions: human, microsomes, pH 7.4
# Method: (§1) The CYP reaction was initiated by adding a CYP probe substrate and incubating at 37° C. for 10-20 minutes, depending on the individual CYP isoform. The reaction was terminated with the addition of 400 μL ice-cold acetonitrile (ACN). […] Positive controls were performed in parallel using a known inhibitor of the individual CYP isoform. […] The samples were then transferred to 96-well plates and analyzed by LC-MS/MS (Appendix 1).
# [4] = tested on: CYP2B6 mRNA; experiment: CYP induction (mRNA) in fresh human hepatocytes; conditions: human
# From the text: (§2) (2) CYP positive inducers (Table 58a) and Williams' Medium E (WME) were purchased from Sigma-Aldrich (St. Louis, MO, USA). Dulbecco's phosphate-buffered saline (DPBS, pH 7.4) was purchased from Invitrogen (Carlsbad, CA, USA). Hepatocyte culture medium (serum-free) for CYP induction was purchased from XenoTech (catalog #K2300, Lenexa, KS, USA). The CellTiter 96 AQueous ONE Solution Cell Proliferation Assay was obtained from Promega (Madison, WI, USA). All other chemicals and reagents were of analytical grade or higher. (3) Fresh human hepatocytes (Table 58b) seeded at ˜0.15 million cells/well in 48-well plates (˜0.75 million cells/mL) were purchased from Thermo Fisher Scientific (Grand Island, NY, USA) and BioreclamationIVT (Baltimore, MD, USA).
# (§3) Vehicle controls were treated in parallel with hepatocyte culture medium. […] (2) After the CYP induction treatment, the cells were used for a cell viability assay. […] The absorbance of formazan, which is proportional to the number of viable cells, was measured spectrophotometrically using the CellTiter 96 AQueous ONE Solution Cell Proliferation Assay. […] (3) Total RNA was isolated from the treated cells using the RNeasy mini kit (Qiagen, Valencia, CA, USA) and treated with RNase-free DNase (Qiagen) following the manufacturer's protocols. The concentration of RNA was determined using a Qubit Fluorometer with a Qubit RNA HS assay kit (Invitrogen). cDNA was synthesized from up to 1 μg of the total RNA harvested from the cells using a QuantiTect RT kit (Qiagen). Analysis of gene expression by qPCR was performed using the LightCycler 480 System (Roche Diagnostics Corporation, Indianapolis, IN, USA).
# [5] = tested on: CYP1A2 mRNA; experiment: CYP induction (mRNA) in fresh human hepatocytes; conditions: human, 3 days, 50 µM
# From the text: as §2, §3
# [6] = tested on: L5178Y TK+/− mouse lymphoma cells; experiment: Mouse Lymphoma Assay (MLA); conditions: for Avg. MF (Mutant Frequency) / Avg. SG: 24 h treatment, −S9
# Method: The cells were prepared in Fischer's or RPMI media supplemented with 10% heat-inactivated horse serum, penicillin-streptomycin, Lglutamine, sodium pyruvate and Pluronic F68. In the initial assay, prior to use in the test, the culture was purged of preexisting TK−/− mutations by exposure to THMG treated medium for 1 day, followed by a transfer to THG medium for 1 to 2 days. This was performed 5 to 8 days prior to testing. In the expanded assay a vial of frozen cells was thawed and used within 5 to 8 days of growth. No washing was needed because the cells were purged of preexisting TK−/− mutations by exposure to THMG treated medium for 1 day and then THG medium for 1 day prior to freezing. […] Colonies were counted using an automated colony counter or manually. After 4 or 24 hours of exposure, the cells were grown for recovery and expression for approximately 48 hours before plated in TFT cloning media. A second set of plates were prepared without TFT to assess viability of cells following treatment. […] Colonies observed on the TFT plate were defined as small or large colonies. […] (3) Of note, the metabolic activation system in this assay consisted of a rat liver homogenate (S-9 microsomal fraction), which was delivered to the test system in the presence of a core mix consisting of NADP and cofactors for NADPH-supported oxidation. The S9 was prepared using the following recipe (per treatment tube); 1 mL of 20 mg/mL S9, 32 mg of NADP, 60 mg of isocitric acid, 40 μL of calcium chloride (CaCl2) and 3.0 mL of cell cultural media. All treatments were performed in duplicate. The treatment tubes were placed in a CO2 incubator at 37±1° C. with continuous agitation.
# [7] = target: P-gp (Homo sapiens, UniProt P08183); conditions: Caco-2; digoxin as substrate; 1.0 μM FL118 or 1.0 μM Valspodar
# Chain of P-gp (P08183 whole entry): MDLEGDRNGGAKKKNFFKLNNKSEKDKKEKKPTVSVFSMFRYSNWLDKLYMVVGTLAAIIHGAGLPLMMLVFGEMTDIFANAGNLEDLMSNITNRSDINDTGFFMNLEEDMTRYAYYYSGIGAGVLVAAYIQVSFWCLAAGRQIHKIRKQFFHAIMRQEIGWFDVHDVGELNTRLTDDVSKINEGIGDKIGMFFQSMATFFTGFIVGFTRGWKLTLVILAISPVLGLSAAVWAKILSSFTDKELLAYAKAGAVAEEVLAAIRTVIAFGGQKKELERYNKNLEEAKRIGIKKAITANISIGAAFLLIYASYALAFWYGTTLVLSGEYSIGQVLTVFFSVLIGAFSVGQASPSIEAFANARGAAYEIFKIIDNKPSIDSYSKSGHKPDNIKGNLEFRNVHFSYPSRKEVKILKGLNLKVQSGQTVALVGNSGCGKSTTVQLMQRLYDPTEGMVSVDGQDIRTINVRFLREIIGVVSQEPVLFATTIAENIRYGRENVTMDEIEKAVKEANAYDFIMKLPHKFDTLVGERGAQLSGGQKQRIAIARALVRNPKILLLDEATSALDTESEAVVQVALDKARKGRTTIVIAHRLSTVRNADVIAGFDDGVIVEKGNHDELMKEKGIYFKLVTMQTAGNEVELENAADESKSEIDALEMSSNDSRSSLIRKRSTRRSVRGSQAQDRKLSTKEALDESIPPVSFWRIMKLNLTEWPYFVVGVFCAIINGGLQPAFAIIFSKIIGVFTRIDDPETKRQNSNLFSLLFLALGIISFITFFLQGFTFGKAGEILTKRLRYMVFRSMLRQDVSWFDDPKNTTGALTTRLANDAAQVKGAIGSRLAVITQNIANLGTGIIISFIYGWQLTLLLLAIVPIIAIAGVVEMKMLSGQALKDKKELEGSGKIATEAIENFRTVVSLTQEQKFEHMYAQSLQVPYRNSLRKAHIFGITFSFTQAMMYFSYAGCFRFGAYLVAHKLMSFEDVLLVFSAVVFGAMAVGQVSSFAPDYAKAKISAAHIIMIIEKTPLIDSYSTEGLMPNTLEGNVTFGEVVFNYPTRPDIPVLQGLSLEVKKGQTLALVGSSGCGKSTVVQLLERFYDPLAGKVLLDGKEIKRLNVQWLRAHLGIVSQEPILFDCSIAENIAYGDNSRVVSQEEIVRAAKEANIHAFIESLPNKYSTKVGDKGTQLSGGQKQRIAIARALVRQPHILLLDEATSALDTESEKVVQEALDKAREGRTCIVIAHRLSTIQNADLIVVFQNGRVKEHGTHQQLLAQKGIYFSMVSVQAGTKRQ
# [8] = target: T1, CYP2B6 (Homo sapiens, UniProt P20813); experiment: in vitro; conditions: human, microsomes, pH 7.4
# T1 sequence (P20813 1-491): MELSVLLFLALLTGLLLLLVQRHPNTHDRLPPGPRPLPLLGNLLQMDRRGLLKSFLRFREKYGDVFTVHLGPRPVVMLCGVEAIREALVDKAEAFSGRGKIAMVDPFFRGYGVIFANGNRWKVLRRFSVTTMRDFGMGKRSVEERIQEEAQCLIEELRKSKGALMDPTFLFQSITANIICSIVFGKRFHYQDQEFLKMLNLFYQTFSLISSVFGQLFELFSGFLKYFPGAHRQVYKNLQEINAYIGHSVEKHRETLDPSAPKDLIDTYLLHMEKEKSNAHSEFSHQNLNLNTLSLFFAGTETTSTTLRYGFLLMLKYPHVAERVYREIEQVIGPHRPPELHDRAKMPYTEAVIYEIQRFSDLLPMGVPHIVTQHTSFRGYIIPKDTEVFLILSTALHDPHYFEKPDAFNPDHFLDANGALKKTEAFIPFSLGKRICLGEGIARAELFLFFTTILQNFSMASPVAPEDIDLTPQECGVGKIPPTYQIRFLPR
# Method: as §1
# [9] = Blood partitioning; conditions: human whole blood
# [10] = tested on: human hepatocytes; experiment: Cell viability (MTS) after CYP induction treatment; conditions: donor 2, control inducers (OME, PB, RIF)
# Method: as §3
# [11] = Liver microsome stability; conditions: human liver microsome; control compound
# [12] = in vitro
# [13] = in vitro; conditions: both, human, s9
# [14] = target: DDX5 (Homo sapiens, UniProt P17844); experiment: Isothermal titration calorimetry (ITC), Flag-DDX5; assay type: binding; conditions: ITC, 25° C., 1×PBS pH7.4 with 8% DMSO
# Chain of DDX5 (P17844 whole entry): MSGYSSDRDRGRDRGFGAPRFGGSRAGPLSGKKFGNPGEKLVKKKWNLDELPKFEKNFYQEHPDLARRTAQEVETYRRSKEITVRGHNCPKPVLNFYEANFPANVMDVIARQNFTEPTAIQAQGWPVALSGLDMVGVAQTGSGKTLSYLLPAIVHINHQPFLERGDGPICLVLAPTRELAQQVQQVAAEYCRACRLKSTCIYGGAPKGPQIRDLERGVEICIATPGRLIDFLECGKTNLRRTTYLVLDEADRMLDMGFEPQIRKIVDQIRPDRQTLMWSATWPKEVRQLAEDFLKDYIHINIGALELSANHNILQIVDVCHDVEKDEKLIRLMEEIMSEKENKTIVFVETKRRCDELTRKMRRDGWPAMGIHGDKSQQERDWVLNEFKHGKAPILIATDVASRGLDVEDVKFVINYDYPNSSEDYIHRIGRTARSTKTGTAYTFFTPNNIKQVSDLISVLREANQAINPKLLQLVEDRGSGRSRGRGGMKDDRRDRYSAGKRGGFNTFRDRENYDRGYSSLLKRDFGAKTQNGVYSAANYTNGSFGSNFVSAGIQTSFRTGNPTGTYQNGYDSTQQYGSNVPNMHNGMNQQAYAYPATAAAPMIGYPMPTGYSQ
compound,measurement,setting,value
CC[C@@]1(O)C(=O)OCc2c1cc1n(c2=O)Cc2cc3cc4c(cc3nc2-1)OCO4 [API],Concentration (dissolution),"[1]; pH 1.2, 5 min",430 ng/mL
same,Concentration (dissolution),"[1]; pH 1.2, 10 min",1550 ng/mL
same,Concentration (dissolution),"[1]; pH 1.2, 15 min",470 ng/mL
same,Concentration (dissolution),"[1]; pH 1.2, 30 min",640 ng/mL
same,Concentration (dissolution),"[1]; pH 1.2, 45 min",510 ng/mL
same,Concentration (dissolution),"[1]; pH 1.2, 60 min",1430 ng/mL
same,Concentration (dissolution),"[1]; pH 1.2, 90 min",1360 ng/mL
same,Concentration (dissolution),"[1]; pH 1.2, 120 min",4470 ng/mL
same,Concentration (dissolution),"[1]; pH 6.8, 5 min",960 ng/mL
same,Concentration (dissolution),"[1]; pH 6.8, 10 min",190 ng/mL
same,Concentration (dissolution),"[1]; pH 6.8, 15 min",310 ng/mL
same,Concentration (dissolution),"[1]; pH 6.8, 30 min",1110 ng/mL
same,Concentration (dissolution),"[1]; pH 6.8, 45 min",310 ng/mL
same,Concentration (dissolution),"[1]; pH 6.8, 60 min",900 ng/mL
same,Concentration (dissolution),"[1]; pH 6.8, 90 min",970 ng/mL
same,Concentration (dissolution),"[1]; pH 6.8, 120 min",1430 ng/mL
"CNC(=O)c1ccc(N2C(=S)N(c3ccc(C#N)c(C(F)(F)F)c3)C(=O)C2(C)C)cc1F [Enza, enzalutamide, reference compound]",antitumor efficacy,[2],not sensitive to Enza
CC(=O)N1CCN(c2ccc(OCC3COC(Cn4ccnc4)(c4ccc(Cl)cc4Cl)O3)cc2)CC1 (stereo not shown) [Ketoconazole],% Inhibition (Positive Control),[3],94.5%
"CCC1(c2ccccc2)C(=O)NC(=O)NC1=O [Phenobarbital (PB), Phenobarbital, reference compound]",% of PB-treated Cells,[4],100%
"COc1ccc2[nH]c([S+]([O-])Cc3ncc(C)c(OC)c3C)nc2c1 (stereo not shown) [Omeprazole (OME), Omeprazole, reference compound]",% of OME-treated Cells,[5],100%
CC[C@@]1(O)C(=O)OCc2c1cc1n(c2=O)Cc2cc3cc4c(cc3nc2-1)OCO4 [Test Article],Avg. MF (Mutant Frequency),[6]; Test Article 0.1 uM,345 mutants/1×10^6 cells
same,Avg. SG,[6]; Test Article 0.1 uM,29.1
same,Avg. MF (Mutant Frequency),[6]; Test Article .01 uM,125 mutants/1×10^6 cells
same,Avg. SG,[6]; Test Article .01 uM,66.2
"C/C=C/C[C@@H](C)C(=O)[C@H]1C(=O)N[C@@H](C(C)C)C(=O)N(C)CC(=O)N(C)[C@@H](CC(C)C)C(=O)N[C@@H](C(C)C)C(=O)N(C)[C@@H](CC(C)C)C(=O)N[C@@H](C)C(=O)N[C@H](C)C(=O)N(C)[C@@H](CC(C)C)C(=O)N(C)[C@@H](CC(C)C)C(=O)N(C)[C@@H](C(C)C)C(=O)N1C [valspodar, reference compound]",P-gp Inhibition Potential Classification,[7],"Positive (ER≥2.0 without inhibitor, and reduced by ≥50% with inhibitor: Positive)"
S=P(N1CC1)(N1CC1)N1CC1 [Thio-TEPA],% Inhibition (Positive Control),[8],71.5%
NS(=O)(=O)c1cc(C2(O)NC(=O)c3ccccc32)ccc1Cl (stereo not shown) [Chlorthalido],RBC to Plasma Partitioning (KRBC/P),[9],19.7
"COS(C)(=O)=O [methyl methanesulfonate (MMS), methyl methanesulfonate]",Average SG,"[6]; mouse, 24 h, 5 μg/mL",48.2
same,Avg. % of IMF Small Colony,"[6]; mouse, 24 h, 5 μg/mL",52.4%
same,Avg. IMF (Induced Mutant Frequency),"[6]; mouse, 24 h, 5 μg/mL",458 mutants/1×10^6 cells
same,Avg. IMF Small Colony,"[6]; mouse, 24 h, 5 μg/mL",240 mutants/1×10^6 cells
same,Avg. RTG (Relative Total Growth),"[6]; mouse, 24 h, 5 μg/mL",38.7%
same,Relative Suspension Growth (%),"[6]; mouse, 24 h, 5 μg/mL",62.5%
same,Average SG,"[6]; mouse, 24 h, 8 μg/mL",26.2
same,Avg. % of IMF Small Colony,"[6]; mouse, 24 h, 8 μg/mL",54.7%
same,Avg. IMF (Induced Mutant Frequency),"[6]; mouse, 24 h, 8 μg/mL",750 mutants/1×10^6 cells
same,Avg. IMF Small Colony,"[6]; mouse, 24 h, 8 μg/mL",417 mutants/1×10^6 cells
same,Avg. RTG (Relative Total Growth),"[6]; mouse, 24 h, 8 μg/mL",15.5%
"CO[C@H]1/C=C/O[C@@]2(C)Oc3c(C)c(O)c4c(O)c(c(/C=N/N5CCN(C)CC5)c(O)c4c3C2=O)NC(=O)/C(C)=C\C=C\[C@H](C)[C@H](O)[C@@H](C)[C@@H](O)[C@@H](C)[C@H](OC(C)=O)[C@@H]1C [Rifampicin (RIF), Rifampicin, reference compound]",Formazan Absorbance Mean,[10],1.37
"O=P1(N(CCCl)CCCl)NCCCO1 (stereo not shown) [cyclophosphamide (CP), cyclophosphamide]",Average SG,"[6]; 4 h, +S9, 15 μg/mL",7.3
same,Day 1 Growth Cell Conc.,"[6]; 4 h, +S9, 15 μg/mL",4.79E+05 Cell/mL and 5.44E+05 Cell/mL
same,Day 2 Growth Cell Conc.,"[6]; 4 h, +S9, 15 μg/mL",1.29E+06 Cell/mL and 1.30E+06 Cell/mL
same,Relative Suspension Growth (%),"[6]; 4 h, +S9, 15 μg/mL",52.7% and 58.8%
same,Suspension Growth (SG),"[6]; 4 h, +S9, 15 μg/mL",5.9 and 7.7
same,Average SG,"[6]; 4 h, +S9, 17.5 μg/mL",4.9
same,Day 1 Growth Cell Conc.,"[6]; 4 h, +S9, 17.5 μg/mL",3.20E+05 Cell/mL and 3.86E+05 Cell/mL
same,Day 2 Growth Cell Conc.,"[6]; 4 h, +S9, 17.5 μg/mL",1.14E+06 Cell/mL and 1.25E+06 Cell/mL
same,Relative Suspension Growth (%),"[6]; 4 h, +S9, 17.5 μg/mL",32.1% and 42.0%
same,Suspension Growth (SG),"[6]; 4 h, +S9, 17.5 μg/mL",4.2 and 5.5
same,Avg. % of IMF Small Colony,"[6]; 4 h summary, +S9, 15 μg/mL",62.1%
same,Avg. IMF,"[6]; 4 h summary, +S9, 15 μg/mL",1000 ×10^−6
same,Avg. IMF Small Colony,"[6]; 4 h summary, +S9, 15 μg/mL",621 ×10^−6
same,Avg. RTG,"[6]; 4 h summary, +S9, 15 μg/mL",21.6%
same,Avg. % of IMF Small Colony,"[6]; 4 h summary, +S9, 17.5 μg/mL",58.6%
same,Avg. IMF,"[6]; 4 h summary, +S9, 17.5 μg/mL",1513 ×10^−6
same,Avg. IMF Small Colony,"[6]; 4 h summary, +S9, 17.5 μg/mL",880 ×10^−6
same,Avg. RTG,"[6]; 4 h summary, +S9, 17.5 μg/mL",6.7%
"C[C@]12CC[C@H]3[C@@H](CCC4=CC(=O)CC[C@@]43C)[C@@H]1CC[C@@H]2O [testosterone, reference compound]",CLint,[11],0.0478 ml/min/mg protein
same,half-life,[11],29 min
same,hepatocyte CLint,"[12]; both, human, hepatocytes, pH 7.4",212 µL/min/1e6 cells
same,half-life,"[12]; cryopreserved human hepatocytes, control compound",2.2 min
same,microsomal CLint,[13],20.7 µL/min/mg
"O=c1ccc2ccc(O)cc2o1 [7-hydroxycoumarin, reference compound]",microsomal CLint,[13],57.3 µL/min/mg
"CC[C@@]1(O)C(=O)OCc2c1cc1n(c2=O)Cc2cc3c(CN(C)C)c(O)ccc3nc2-1 [topotecan, reference compound]",Kd,[14],≥ 1080 nM
